Measurements: patent US12247004B2, “2-amino-N-(amino-oxo-aryl-lambda6-sulfanylidene)acetamide compounds and their therapeutic use” (Oxford Drug Design Limited, priority 2019, dated 2025)
pIC50: −log10 of the molar value.

What was measured:
HepG2 ATCC HB-8065 cells = test: Human cell viability / cytotoxicity (CellTiter-Glo, 24 hours); type: cell-based; settings: HepG2 ATCC HB-8065, 24 hours
How it was run: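 HepG2 cells (15,000/well, MEM with 1% NEAA and 1% pyruvate) were grown 2 days, then exposed to compounds in duplicate for 24 h at 1.28% DMSO. Viability was read as ATP by CellTiter-Glo luminescence relative to DMSO-only wells. IC50 is in μg/mL.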

[1] = molecular target: Leucyl-tRNA synthetase (LeuRS) (Escherichia coli (strain K12), UniProt P07813); test: Leucyl-tRNA synthetase enzyme inhibition (AMP-Glo; single point % inhibition at 100 μM and IC50); type: biochemical; settings: E. coli LeuRS; read-out: Enzyme Inhibition - IC50, E. coli LeuRS
Chain of Leucyl-tRNA synthetase (LeuRS) (P07813 whole entry, looked up): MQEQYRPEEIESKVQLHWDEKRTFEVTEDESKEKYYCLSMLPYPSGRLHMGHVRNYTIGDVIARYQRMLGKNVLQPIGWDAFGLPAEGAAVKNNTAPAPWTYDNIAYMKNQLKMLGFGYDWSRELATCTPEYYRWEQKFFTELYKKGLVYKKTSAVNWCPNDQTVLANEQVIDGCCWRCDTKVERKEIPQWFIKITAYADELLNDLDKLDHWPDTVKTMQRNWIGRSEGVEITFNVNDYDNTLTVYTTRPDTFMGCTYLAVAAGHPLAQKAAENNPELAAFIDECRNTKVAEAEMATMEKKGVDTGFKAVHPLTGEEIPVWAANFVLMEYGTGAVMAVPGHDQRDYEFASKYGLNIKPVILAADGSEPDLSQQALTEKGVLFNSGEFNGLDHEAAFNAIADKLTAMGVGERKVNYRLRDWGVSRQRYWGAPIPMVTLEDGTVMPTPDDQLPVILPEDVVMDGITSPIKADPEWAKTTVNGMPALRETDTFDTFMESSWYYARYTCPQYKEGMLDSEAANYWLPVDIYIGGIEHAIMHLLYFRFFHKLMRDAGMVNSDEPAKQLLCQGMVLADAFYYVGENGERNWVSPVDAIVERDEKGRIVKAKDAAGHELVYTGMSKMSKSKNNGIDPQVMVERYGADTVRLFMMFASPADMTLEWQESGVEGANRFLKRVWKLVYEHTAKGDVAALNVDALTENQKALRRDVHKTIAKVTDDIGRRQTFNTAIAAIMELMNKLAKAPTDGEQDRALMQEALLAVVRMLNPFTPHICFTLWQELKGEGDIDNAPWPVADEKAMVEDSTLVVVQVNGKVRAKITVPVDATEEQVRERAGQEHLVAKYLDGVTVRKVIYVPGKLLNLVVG

CC(C)C[C@H](N)C(=O)N=[S@@](N)(=O)c1cccs1.Cl [ANASIA-007-2, (S)-2-amino-N—((R)-amino(oxo) (thiophen-2-yl)-λ6-sulfanylidene)-4-methyl pentanamide hydrochloride]
Cytotoxicity in HepG2 ATCC HB-8065 Cell Line, IC50 (HepG2 ATCC HB-8065 cells): >64.0 µg/mL
pIC50 [1]: 5.31
